Assay results from patent US11884750B2, “Cationic cell penetrating peptides and the use thereof” (CELLTROY CO., LTD., priority 2021, dated 2024).

What was measured:
SH-SY5Y cells = experiment: Cell penetration efficiency in human neuroblastoma cells, 4 μM, flow cytometry; format: cell-based; settings: one hour; for cell permeability compared with TAT: 4 μM FITC-conjugated CPP, flow cytometry; for Score / Score/TAT: 4 μM FITC-conjugated peptide; for Score: intracellular fluorescence by flow cytometry; for Score/TAT: ratio to FITC-conjugated TAT
Description: The cell penetration efficiency of the cationic CPPs selected in Example 1 was evaluated in neuroblastoma. In further detail, SH-SYSY cells, which is a human neuroblastoma cell line, were seeded in 24-well plates to have a cell density of 1×10^7 cells/well, and cultured in 10% FBS-added DMEM under conditions of 37° C. and 5% CO2 for 24 hours. In addition, the cells were treated with 4 μM each of FITC-conjugated CPPs (C12, C14, C16, C31, C52, and C67), or FITC-conjugated TAT, and incubated for one hour. After the termination of the incubation, the cells were transferred to a sterile tube using 0.25% trypsin and centrifuged to remove the medium. Afterward, the cells were washed with 500 μL of D-PBS twice to completely remove the medium, and finally, resuspended in 400 μL of D-PBS and intracellular fluorescence was measured by flow cytometry (FACSCanto II).
(§1) To evaluate the cell penetration efficiency of the additionally selected cationic CPPs, an experiment was conducted using human epidermal cells or human neuroblastoma cells. In further detail, HaCAT cells, which is a human epidermal cell line, or SH-SYSY cells, which is a human neuroblastoma cell line, were seeded in 24-well plates to have a cell density of 1×10^7 cells/well and cultured in 10% FBS-added DMEM under conditions of 37° C. and 5% CO2 for 24 hours. In addition, the cells were treated with 4 μM each of FITC-conjugated peptides and FITC-conjugated TAT for one hour. After the completion of the culture, the cells were transferred to a sterile tube using 0.25% trypsin and centrifuged to remove the medium. Afterward, the cells were washed with 500 μL of D-PBS twice to completely remove the medium, and finally, resuspended in 400 μL of D-PBS and intracellular fluorescence was measured by flow cytometry (FACSCanto II).
(§2) Subsequently, to confirm whether the CPPs according to the present invention show excellent cell permeability into different types of cells/tissues, various tissue-derived cells were treated with biologically active molecule-conjugated CPPs to compare its delivery capacity with TAT. As in the previous examples, each cell was aliquoted in a plate at an appropriate density, and cultured in a 10% FBS-added medium under a condition of 37° C. and 5% CO2 for 24 hours. Subsequently, the cells were treated with 4 μM each of FITC-conjugated CPP or FITC-conjugated TAT and incubated for one hour. After the completion of the incubation, the cells were transferred to a sterile tube using 0.25% trypsin and centrifuged to remove the medium. Afterward, the cells were washed with 500 μL of D-PBS twice to completely remove the medium, and finally, resuspended in 400 μL of D-PBS and intracellular fluorescence was measured by flow cytometry (FACSCanto II).

HT1080 cell line = experiment: Cell penetration efficiency using connective tissue (fibrosarcoma) cells; format: cell-based; settings: 4 μM FITC-conjugated CPP, one hour
Description: as §2

A-427 cell line = experiment: Cell penetration efficiency using lung cells; format: cell-based; settings: A-427 lung cells, 4 μM FITC-conjugated CPP, one hour
Description: as §2

HGB cell line = experiment: Cell penetration efficiency in glioblastoma cells; format: cell-based, human; settings: 4 μM FITC-conjugated CPP, one hour
Description: as §2

HaCAT cells = experiment: Cell penetration efficiency in human epidermal (skin) cells, 4 μM, flow cytometry; format: cell-based; settings: 4 μM FITC-conjugated CPP, one hour
Description: The cell penetration efficiency of the cationic CPPs selected in Example 1 was evaluated using human epidermal cells. In further detail, HaCAT cells, which is a human epidermal cell line, were seeded in 24-well plates to have a cell density of 1×10^7 cells/well, and cultured in 10% FBS-added DMEM under conditions of 37° C. and 5% CO2 for 24 hours. Subsequently, the cells were treated 4 μM each of the FITC-conjugated CPP or FITC-conjugated TAT, and incubated for one hour. After the termination of the incubation, the cells were transferred to a sterile tube using 0.25% trypsin, and the medium was removed through centrifugation. Afterward, the cells were washed with 500 μL of D-PBS twice to completely remove the medium, and finally, resuspended in 400 μL of D-PBS and intracellular fluorescence was measured by flow cytometry (FACSCanto II).
as §1, §2

monocytes = experiment: Cell penetration efficiency using monocytes; format: cell-based; settings: 4 μM FITC-conjugated CPP, one hour
Description: as §2

SNU-46 cell line = experiment: Cell penetration efficiency using laryngeal cells; format: cell-based; settings: SNU-46 laryngeal cells, 4 μM FITC-conjugated CPP, one hour
Description: as §2

HDF cell line = experiment: Cell penetration efficiency in skin cells (HDF); format: cell-based; settings: 4 μM FITC-conjugated CPP, one hour
Description: as §2

HeLa cell line = experiment: Cell penetration efficiency using cervical cancer cells; format: cell-based; settings: 4 μM FITC-conjugated CPP, one hour
Description: as §2

HEK293T cell line = experiment: Cell penetration efficiency using kidney cells; format: cell-based; settings: 4 μM FITC-conjugated CPP, one hour
Description: as §2

macrophages = experiment: Cell penetration efficiency using macrophages; format: cell-based; settings: macrophages differentiated from THP1 cells, 4 μM FITC-conjugated CPP, one hour
Description: as §2, with “II). Macrophages were used by inducing differentiation from THP1 cells. Specifically, the THP-1 cells were aliquoted on a cover glass laid on a 24-well plate to have a density of 6×10^4 cells/well, and after the addition of 100 ng/mL of phorbol 12-myristate 13-acetate (PMA), the cells were incubated for 48 hours to induce the differentiation into macrophages. After 48 hours, the cells were washed with Dulbecco's phosphate buffered saline (DPBS) to perform an experiment.” for “II).”

| Sequence | cell permeability compared with TAT (SH-SY5Y cells) | Score (SH-SY5Y cells) | Score/TAT (SH-SY5Y cells) | cell permeability compared with TAT (HT1080 cell line) | cell permeability compared with TAT (A-427 cell line) | cell permeability compared with TAT (HGB cell line) | cell permeability compared with TAT (HaCAT cells) | cell permeability compared with TAT (monocytes) | cell permeability compared with TAT (SNU-46 cell line) | cell permeability compared with TAT (HDF cell line) | cell permeability compared with TAT (HeLa cell line) | cell permeability compared with TAT (HEK293T cell line) | cell permeability compared with TAT (macrophages) |
| --- | --- | --- | --- | --- | --- | --- | --- | --- | --- | --- | --- | --- | --- |
| ARKNRMARQRRLRP [C45] | higher cell permeability | 570 | 1.098 | higher cell permeability | higher cell permeability |  |  |  |  |  |  |  |  |
| ARRLRRRTAKLPAR [C102] | higher cell permeability | 720 | 1.387 |  |  | higher cell permeability | higher cell permeability |  |  |  |  |  |  |
| KRKLKVRRKLREPR [C115] | higher cell permeability | 563 | 1.085 |  |  |  |  | higher cell permeability |  |  |  |  |  |
| KRRKLRIKRRIRVP [C208] | higher cell permeability | 1326 | 2.555 | higher cell permeability |  |  | higher cell permeability | higher cell permeability | higher cell permeability | higher cell permeability | higher cell permeability |  |  |
| RIRALARRRDRRRP [C354] | higher cell permeability | 564 | 1.087 | higher cell permeability | higher cell permeability | higher cell permeability |  |  |  |  | higher cell permeability | higher cell permeability |  |
| RLRALVRRKQRARP [C82] | higher cell permeability | 628 | 1.210 | higher cell permeability | higher cell permeability |  | higher cell permeability | higher cell permeability |  |  |  |  |  |
| RLREKRRSLKRKRP [C262] |  | 345 | 0.665 | higher cell permeability | higher cell permeability |  |  |  |  |  | higher cell permeability | higher cell permeability |  |
| RPALKQRRWRRKKK [C117] | higher cell permeability | 936 | 1.803 | higher cell permeability | higher cell permeability | higher cell permeability | higher cell permeability | higher cell permeability | higher cell permeability | higher cell permeability | higher cell permeability |  |  |
| RPIRKLLRQARQRR [C131] | higher cell permeability | 790 | 1.522 |  |  | higher cell permeability |  | higher cell permeability |  | higher cell permeability | higher cell permeability |  |  |
| RPRRKKQAKRLGKR [C378] |  | 400 | 0.771 |  |  |  |  |  | higher cell permeability |  | higher cell permeability |  |  |
| RRALKRRAMRARRP [C170] | higher cell permeability | 605 | 1.166 |  |  | higher cell permeability |  |  |  | higher cell permeability | higher cell permeability |  |  |
| RRALRRRAQRRGAP [C181] | higher cell permeability | 682 | 1.314 |  |  | higher cell permeability |  | higher cell permeability |  | higher cell permeability | higher cell permeability |  |  |
| RTRLLRRLRALKPR [C223] |  | 408 | 0.786 |  |  |  |  | higher cell permeability |  |  | higher cell permeability |  |  |
| RVRAILRRTRRKEP [C236] |  | 395 | 0.761 | higher cell permeability |  |  |  |  |  |  | higher cell permeability | higher cell permeability |  |
| RVRALARRRRQARP [C282] |  | 441 | 0.850 | higher cell permeability | higher cell permeability |  |  |  |  |  | higher cell permeability | higher cell permeability |  |
| RVRSLARRARRRTP [C401] |  | 425 | 0.819 | higher cell permeability | higher cell permeability |  |  |  |  |  |  |  |  |
| RVRTLLRRRRTERP [C402] |  | 437 | 0.842 | higher cell permeability | higher cell permeability |  |  |  |  |  |  |  |  |
| SVKRRRRRALAKRP [C341] | higher cell permeability | 747 | 1.439 | higher cell permeability |  | higher cell permeability |  |  |  |  | higher cell permeability | higher cell permeability |  |
| YRPRRKKATKKLKR [C284] | higher cell permeability | 532 | 1.025 |  |  | higher cell permeability |  |  |  |  | higher cell permeability | higher cell permeability | higher cell permeability |
